Reference: the NIST ThermoML archive (doi:10.1016/j.fluid.2017.06.019)
± gives the expanded uncertainty stated by the source.

Conditions: Coaxial cylinder method

## CCC [propane]
366.45 K, 4013 kPa, Liquid
  thermal conductivity: 0.1345 ± 0.012 W/m/K
366.45 K, 4014 kPa, Liquid
  thermal conductivity: 0.132 ± 0.012 W/m/K
366.45 K, 4015 kPa, Liquid
  thermal conductivity: 0.1298 ± 0.012 W/m/K
366.45 K, 4016 kPa, Liquid
  thermal conductivity: 0.127 ± 0.012 W/m/K
366.45 K, 4017 kPa, Liquid
  thermal conductivity: 0.1241 ± 0.012 W/m/K
366.45 K, 4018 kPa, Liquid
  thermal conductivity: 0.1223 ± 0.011 W/m/K
366.45 K, 4019 kPa, Liquid
  thermal conductivity: 0.1202 ± 0.011 W/m/K
366.45 K, 4020 kPa, Liquid
  thermal conductivity: 0.1175 ± 0.011 W/m/K
366.45 K, 4021 kPa, Liquid
  thermal conductivity: 0.1145 ± 0.011 W/m/K
366.45 K, 4022 kPa, Liquid
  thermal conductivity: 0.1126 ± 0.011 W/m/K
366.45 K, 4023 kPa, Liquid
  thermal conductivity: 0.1108 ± 0.01 W/m/K
366.45 K, 4024 kPa, Liquid
  thermal conductivity: 0.1089 ± 0.01 W/m/K
366.45 K, 4025 kPa, Liquid
  thermal conductivity: 0.107 ± 0.01 W/m/K
366.45 K, 4026 kPa, Liquid
  thermal conductivity: 0.1052 ± 0.01 W/m/K
366.45 K, 4027 kPa, Liquid
  thermal conductivity: 0.1035 ± 0.01 W/m/K
366.45 K, 4028 kPa, Liquid
  thermal conductivity: 0.1018 ± 0.0097 W/m/K
366.45 K, 4029 kPa, Liquid
  thermal conductivity: 0.1003 ± 0.0097 W/m/K
366.45 K, 4030 kPa, Liquid
  thermal conductivity: 0.09876 ± 0.0096 W/m/K
366.45 K, 4031 kPa, Liquid
  thermal conductivity: 0.09718 ± 0.0096 W/m/K
366.45 K, 4032 kPa, Liquid
  thermal conductivity: 0.09578 ± 0.0094 W/m/K
366.45 K, 4033 kPa, Liquid
  thermal conductivity: 0.09438 ± 0.0091 W/m/K
366.45 K, 4034 kPa, Liquid
  thermal conductivity: 0.0931 ± 0.0089 W/m/K
366.45 K, 4035 kPa, Liquid
  thermal conductivity: 0.09185 ± 0.0087 W/m/K
366.45 K, 4036 kPa, Liquid
  thermal conductivity: 0.09064 ± 0.0086 W/m/K
366.45 K, 4037 kPa, Liquid
  thermal conductivity: 0.08946 ± 0.0083 W/m/K
366.45 K, 4038 kPa, Liquid
  thermal conductivity: 0.0883 ± 0.008 W/m/K
366.45 K, 4039 kPa, Liquid
  thermal conductivity: 0.08718 ± 0.0079 W/m/K
366.45 K, 4040 kPa, Liquid
  thermal conductivity: 0.08608 ± 0.0078 W/m/K
366.45 K, 4045 kPa, Liquid
  thermal conductivity: 0.08137 ± 0.0072 W/m/K
366.45 K, 4050 kPa, Liquid
  thermal conductivity: 0.0775 ± 0.0069 W/m/K
366.45 K, 4055 kPa, Liquid
  thermal conductivity: 0.07438 ± 0.0066 W/m/K
366.45 K, 4057 kPa, Liquid
  thermal conductivity: 0.07324 ± 0.0066 W/m/K
366.45 K, 4065 kPa, Liquid
  thermal conductivity: 0.06968 ± 0.0056 W/m/K
366.45 K, 4070 kPa, Liquid
  thermal conductivity: 0.06809 ± 0.0052 W/m/K
366.45 K, 4075 kPa, Liquid
  thermal conductivity: 0.0668 ± 0.0048 W/m/K
366.45 K, 4080 kPa, Liquid
  thermal conductivity: 0.0658 ± 0.0046 W/m/K
366.45 K, 4085 kPa, Liquid
  thermal conductivity: 0.06508 ± 0.0045 W/m/K
366.45 K, 4090 kPa, Liquid
  thermal conductivity: 0.06449 ± 0.0044 W/m/K
366.45 K, 4095 kPa, Liquid
  thermal conductivity: 0.06445 ± 0.0043 W/m/K
366.45 K, 4100 kPa, Liquid
  thermal conductivity: 0.06429 ± 0.0043 W/m/K
366.45 K, 4105 kPa, Liquid
  thermal conductivity: 0.06425 ± 0.0043 W/m/K
366.45 K, 4110 kPa, Liquid
  thermal conductivity: 0.06421 ± 0.0042 W/m/K
366.45 K, 4115 kPa, Liquid
  thermal conductivity: 0.06418 ± 0.0042 W/m/K
366.45 K, 4120 kPa, Liquid
  thermal conductivity: 0.06414 ± 0.0042 W/m/K
366.45 K, 4125 kPa, Liquid
  thermal conductivity: 0.0641 ± 0.0042 W/m/K
366.45 K, 4130 kPa, Liquid
  thermal conductivity: 0.06408 ± 0.0042 W/m/K
366.45 K, 4140 kPa, Liquid
  thermal conductivity: 0.06408 ± 0.0042 W/m/K
366.45 K, 4150 kPa, Liquid
  thermal conductivity: 0.06404 ± 0.0042 W/m/K
366.45 K, 4160 kPa, Liquid
  thermal conductivity: 0.064 ± 0.0042 W/m/K
366.45 K, 4170 kPa, Liquid
  thermal conductivity: 0.06396 ± 0.0042 W/m/K
366.45 K, 4180 kPa, Liquid
  thermal conductivity: 0.06392 ± 0.0042 W/m/K
366.45 K, 4190 kPa, Liquid
  thermal conductivity: 0.06394 ± 0.0042 W/m/K
366.45 K, 4200 kPa, Liquid
  thermal conductivity: 0.06392 ± 0.0042 W/m/K
366.45 K, 4210 kPa, Liquid
  thermal conductivity: 0.06392 ± 0.0042 W/m/K
366.45 K, 4220 kPa, Liquid
  thermal conductivity: 0.06388 ± 0.0042 W/m/K
366.45 K, 4230 kPa, Liquid
  thermal conductivity: 0.06388 ± 0.0042 W/m/K
366.45 K, 4240 kPa, Liquid
  thermal conductivity: 0.06387 ± 0.0042 W/m/K
366.45 K, 4250 kPa, Liquid
  thermal conductivity: 0.06387 ± 0.0042 W/m/K
366.45 K, 4260 kPa, Liquid
  thermal conductivity: 0.0639 ± 0.0042 W/m/K
366.45 K, 4270 kPa, Liquid
  thermal conductivity: 0.0639 ± 0.0042 W/m/K
366.45 K, 4280 kPa, Liquid
  thermal conductivity: 0.0639 ± 0.0042 W/m/K
366.45 K, 4290 kPa, Liquid
  thermal conductivity: 0.0639 ± 0.0042 W/m/K
366.45 K, 4300 kPa, Liquid
  thermal conductivity: 0.06392 ± 0.0042 W/m/K
366.45 K, 4330 kPa, Liquid
  thermal conductivity: 0.06396 ± 0.0042 W/m/K
366.45 K, 4400 kPa, Liquid
  thermal conductivity: 0.0641 ± 0.0042 W/m/K
366.45 K, 4410 kPa, Liquid
  thermal conductivity: 0.06416 ± 0.0042 W/m/K
366.45 K, 4477 kPa, Liquid
  thermal conductivity: 0.06435 ± 0.0042 W/m/K
366.45 K, 4491 kPa, Liquid
  thermal conductivity: 0.06439 ± 0.0042 W/m/K
367.32 K, 4010 kPa, Gas
  thermal conductivity: 0.04654 ± 0.012 W/m/K
367.32 K, 4012 kPa, Gas
  thermal conductivity: 0.04665 ± 0.012 W/m/K
367.32 K, 4014 kPa, Gas
  thermal conductivity: 0.04687 ± 0.0077 W/m/K
367.32 K, 4025 kPa, Gas
  thermal conductivity: 0.04792 ± 0.012 W/m/K
367.32 K, 4026 kPa, Gas
  thermal conductivity: 0.05076 ± 0.011 W/m/K
367.32 K, 4027 kPa, Gas
  thermal conductivity: 0.05394 ± 0.011 W/m/K
367.32 K, 4028 kPa, Gas
  thermal conductivity: 0.05642 ± 0.01 W/m/K
367.32 K, 4029 kPa, Gas
  thermal conductivity: 0.05957 ± 0.0093 W/m/K
367.32 K, 4030 kPa, Gas
  thermal conductivity: 0.06288 ± 0.0088 W/m/K
367.32 K, 4031 kPa, Gas
  thermal conductivity: 0.06655 ± 0.0083 W/m/K
367.32 K, 4032 kPa, Gas
  thermal conductivity: 0.06997 ± 0.0078 W/m/K
367.32 K, 4033 kPa, Gas
  thermal conductivity: 0.07414 ± 0.0075 W/m/K
367.32 K, 4034 kPa, Gas
  thermal conductivity: 0.07824 ± 0.0072 W/m/K
367.32 K, 4035 kPa, Gas
  thermal conductivity: 0.08231 ± 0.007 W/m/K
367.32 K, 4036 kPa, Gas
  thermal conductivity: 0.08718 ± 0.0069 W/m/K
367.32 K, 4037 kPa, Gas
  thermal conductivity: 0.09169 ± 0.0069 W/m/K
367.32 K, 4038 kPa, Gas
  thermal conductivity: 0.09661 ± 0.0069 W/m/K
367.32 K, 4039 kPa, Gas
  thermal conductivity: 0.1018 ± 0.007 W/m/K
367.32 K, 4040 kPa, Gas
  thermal conductivity: 0.1068 ± 0.0071 W/m/K
367.32 K, 4041 kPa, Gas
  thermal conductivity: 0.1118 ± 0.0073 W/m/K
367.32 K, 4042 kPa, Gas
  thermal conductivity: 0.1171 ± 0.0075 W/m/K
367.32 K, 4043 kPa, Gas
  thermal conductivity: 0.1226 ± 0.0077 W/m/K
367.32 K, 4044 kPa, Gas
  thermal conductivity: 0.1282 ± 0.008 W/m/K
367.32 K, 4045 kPa, Gas
  thermal conductivity: 0.134 ± 0.0084 W/m/K
367.32 K, 4046 kPa, Gas
  thermal conductivity: 0.1397 ± 0.0087 W/m/K
367.32 K, 4047 kPa, Gas
  thermal conductivity: 0.145 ± 0.009 W/m/K
367.32 K, 4048 kPa, Gas
  thermal conductivity: 0.1514 ± 0.0094 W/m/K
367.32 K, 4050 kPa, Gas
  thermal conductivity: 0.1645 ± 0.01 W/m/K
367.32 K, 4051 kPa, Gas
  thermal conductivity: 0.1714 ± 0.011 W/m/K
367.32 K, 4052 kPa, Gas
  thermal conductivity: 0.1781 ± 0.011 W/m/K
367.32 K, 4053 kPa, Gas
  thermal conductivity: 0.1856 ± 0.012 W/m/K
367.32 K, 4054 kPa, Gas
  thermal conductivity: 0.1925 ± 0.012 W/m/K
367.32 K, 4055 kPa, Gas
  thermal conductivity: 0.1998 ± 0.016 W/m/K
367.32 K, 4056 kPa, Gas
  thermal conductivity: 0.2078 ± 0.018 W/m/K
367.32 K, 4057 kPa, Gas
  thermal conductivity: 0.2153 ± 0.018 W/m/K
367.32 K, 4058 kPa, Gas
  thermal conductivity: 0.2233 ± 0.019 W/m/K
367.32 K, 4059 kPa, Gas
  thermal conductivity: 0.2315 ± 0.019 W/m/K
367.32 K, 4060 kPa, Liquid
  thermal conductivity: 0.2315 ± 0.017 W/m/K
367.32 K, 4061 kPa, Liquid
  thermal conductivity: 0.2164 ± 0.016 W/m/K
367.32 K, 4062 kPa, Liquid
  thermal conductivity: 0.2079 ± 0.015 W/m/K
367.32 K, 4063 kPa, Liquid
  thermal conductivity: 0.1998 ± 0.014 W/m/K
367.32 K, 4064 kPa, Liquid
  thermal conductivity: 0.1925 ± 0.014 W/m/K
367.32 K, 4065 kPa, Liquid
  thermal conductivity: 0.1857 ± 0.013 W/m/K
